By inhibition is commonly meant how much of the control response was suppressed. A low value points to little suppression. What is called IC50 is the concentration that gives 50% inhibition. Read a low IC50 as inhibition by little substance.

For test [1], the target named is Sucrase-isomaltase, intestinal (Rattus norvegicus) (UniProt P23739). As to conditions: Caco-2, 21 uM.
Description: Inhibition of rat intestinal sucrase expressed in human Caco-2 cells at 21 uM
Test [2] addresses T1, Sucrase-isomaltase, intestinal (Homo sapiens, UniProt P14410). The experiment in a line: Inhibition of human intestinal sucrase in human Caco-2 cell membrane at 25 uM.
Target sequence in this assay (P14410 2-1007 limits assumed): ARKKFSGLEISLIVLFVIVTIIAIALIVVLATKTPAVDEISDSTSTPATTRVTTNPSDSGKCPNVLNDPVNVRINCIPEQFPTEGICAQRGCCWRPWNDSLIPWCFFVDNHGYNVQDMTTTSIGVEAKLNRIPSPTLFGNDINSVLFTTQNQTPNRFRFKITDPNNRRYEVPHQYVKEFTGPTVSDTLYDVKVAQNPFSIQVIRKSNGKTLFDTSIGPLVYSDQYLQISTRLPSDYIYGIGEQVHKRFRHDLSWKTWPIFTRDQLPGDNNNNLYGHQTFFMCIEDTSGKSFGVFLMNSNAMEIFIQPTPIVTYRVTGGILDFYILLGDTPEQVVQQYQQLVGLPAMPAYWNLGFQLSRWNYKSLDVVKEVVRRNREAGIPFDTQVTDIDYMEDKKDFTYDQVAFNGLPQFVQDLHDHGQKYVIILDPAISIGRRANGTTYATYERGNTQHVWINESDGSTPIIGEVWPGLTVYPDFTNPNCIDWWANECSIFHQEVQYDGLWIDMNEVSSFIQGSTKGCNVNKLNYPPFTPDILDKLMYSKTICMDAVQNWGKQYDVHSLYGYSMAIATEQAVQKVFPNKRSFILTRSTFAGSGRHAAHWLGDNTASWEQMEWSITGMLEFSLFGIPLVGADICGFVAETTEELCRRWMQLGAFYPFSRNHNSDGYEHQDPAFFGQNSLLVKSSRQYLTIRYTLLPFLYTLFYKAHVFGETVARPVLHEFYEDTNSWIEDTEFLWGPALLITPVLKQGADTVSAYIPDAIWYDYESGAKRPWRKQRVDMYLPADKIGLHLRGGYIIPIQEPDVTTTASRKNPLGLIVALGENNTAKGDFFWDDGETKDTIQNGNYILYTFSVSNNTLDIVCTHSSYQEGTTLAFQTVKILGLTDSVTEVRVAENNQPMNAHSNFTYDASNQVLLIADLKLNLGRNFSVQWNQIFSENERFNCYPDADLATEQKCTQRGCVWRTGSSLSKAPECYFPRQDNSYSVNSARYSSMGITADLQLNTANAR
Target sequence in this assay (P14410 1008-1827 limits assumed): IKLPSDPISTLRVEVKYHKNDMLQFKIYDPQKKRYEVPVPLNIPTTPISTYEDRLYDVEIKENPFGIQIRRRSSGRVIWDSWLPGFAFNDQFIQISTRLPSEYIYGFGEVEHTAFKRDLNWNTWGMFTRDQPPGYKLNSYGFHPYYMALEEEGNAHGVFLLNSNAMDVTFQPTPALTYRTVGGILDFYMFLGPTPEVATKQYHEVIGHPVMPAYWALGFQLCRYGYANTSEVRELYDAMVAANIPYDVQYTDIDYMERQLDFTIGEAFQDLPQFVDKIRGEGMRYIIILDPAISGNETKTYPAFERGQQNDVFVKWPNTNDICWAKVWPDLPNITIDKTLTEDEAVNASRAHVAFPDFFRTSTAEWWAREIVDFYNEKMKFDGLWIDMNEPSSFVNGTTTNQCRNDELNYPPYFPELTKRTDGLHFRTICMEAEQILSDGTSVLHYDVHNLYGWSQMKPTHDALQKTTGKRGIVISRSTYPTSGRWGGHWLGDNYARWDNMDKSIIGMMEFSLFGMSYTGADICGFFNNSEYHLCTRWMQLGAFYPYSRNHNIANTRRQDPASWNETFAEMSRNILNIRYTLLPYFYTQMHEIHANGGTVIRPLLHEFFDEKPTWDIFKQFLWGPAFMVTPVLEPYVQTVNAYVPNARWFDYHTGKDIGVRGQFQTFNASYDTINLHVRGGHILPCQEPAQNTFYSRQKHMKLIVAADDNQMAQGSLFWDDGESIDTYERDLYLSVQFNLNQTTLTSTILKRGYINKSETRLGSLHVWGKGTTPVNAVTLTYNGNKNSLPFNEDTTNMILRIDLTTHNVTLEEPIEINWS
In test [3] the target is T1, Sucrase-isomaltase, intestinal. The experiment in a line: Inhibition of human intestinal sucrase in human Caco-2 cell membrane. Type of test: cell-based.
Target sequence in this assay (P14410 2-1007 limits assumed): as the sequence (P14410 2-1007 limits assumed) above
Target sequence in this assay (P14410 1008-1827 limits assumed): as the sequence (P14410 1008-1827 limits assumed) above
For test [4], the target named is Sucrase-isomaltase, intestinal (Rattus norvegicus, UniProt P23739). The experiment in a line: Inhibition of rat intestinal sucrase.
Sucrase-isomaltase, intestinal (Rattus norvegicus, UniProt P23739), sequence (P23739 1-1013 limits assumed): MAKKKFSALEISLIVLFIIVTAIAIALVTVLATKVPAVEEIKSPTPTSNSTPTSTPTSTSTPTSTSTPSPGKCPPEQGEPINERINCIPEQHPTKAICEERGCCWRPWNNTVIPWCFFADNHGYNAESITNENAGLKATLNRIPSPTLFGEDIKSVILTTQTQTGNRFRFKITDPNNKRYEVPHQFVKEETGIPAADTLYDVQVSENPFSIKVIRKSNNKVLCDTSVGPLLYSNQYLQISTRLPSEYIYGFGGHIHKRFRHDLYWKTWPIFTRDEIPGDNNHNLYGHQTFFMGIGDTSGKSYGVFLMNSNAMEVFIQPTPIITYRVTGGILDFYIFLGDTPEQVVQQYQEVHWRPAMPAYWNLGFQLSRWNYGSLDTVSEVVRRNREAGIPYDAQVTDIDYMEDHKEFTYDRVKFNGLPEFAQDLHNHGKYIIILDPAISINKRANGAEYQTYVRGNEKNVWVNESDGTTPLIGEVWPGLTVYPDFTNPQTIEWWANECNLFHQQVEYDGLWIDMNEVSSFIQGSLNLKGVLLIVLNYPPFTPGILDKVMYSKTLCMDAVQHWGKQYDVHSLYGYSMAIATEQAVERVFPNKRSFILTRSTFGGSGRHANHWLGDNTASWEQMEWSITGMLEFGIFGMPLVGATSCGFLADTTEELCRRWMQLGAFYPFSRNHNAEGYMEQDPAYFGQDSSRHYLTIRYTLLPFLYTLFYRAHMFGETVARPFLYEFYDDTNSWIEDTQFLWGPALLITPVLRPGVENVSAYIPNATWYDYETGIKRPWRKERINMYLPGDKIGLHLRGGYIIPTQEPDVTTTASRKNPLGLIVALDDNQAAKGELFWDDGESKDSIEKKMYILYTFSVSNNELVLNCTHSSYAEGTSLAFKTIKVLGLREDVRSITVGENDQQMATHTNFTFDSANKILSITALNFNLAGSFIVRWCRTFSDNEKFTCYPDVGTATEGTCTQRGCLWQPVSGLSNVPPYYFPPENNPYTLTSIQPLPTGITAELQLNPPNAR
Sucrase-isomaltase, intestinal (Rattus norvegicus, UniProt P23739), sequence (P23739 1014-1841 limits assumed): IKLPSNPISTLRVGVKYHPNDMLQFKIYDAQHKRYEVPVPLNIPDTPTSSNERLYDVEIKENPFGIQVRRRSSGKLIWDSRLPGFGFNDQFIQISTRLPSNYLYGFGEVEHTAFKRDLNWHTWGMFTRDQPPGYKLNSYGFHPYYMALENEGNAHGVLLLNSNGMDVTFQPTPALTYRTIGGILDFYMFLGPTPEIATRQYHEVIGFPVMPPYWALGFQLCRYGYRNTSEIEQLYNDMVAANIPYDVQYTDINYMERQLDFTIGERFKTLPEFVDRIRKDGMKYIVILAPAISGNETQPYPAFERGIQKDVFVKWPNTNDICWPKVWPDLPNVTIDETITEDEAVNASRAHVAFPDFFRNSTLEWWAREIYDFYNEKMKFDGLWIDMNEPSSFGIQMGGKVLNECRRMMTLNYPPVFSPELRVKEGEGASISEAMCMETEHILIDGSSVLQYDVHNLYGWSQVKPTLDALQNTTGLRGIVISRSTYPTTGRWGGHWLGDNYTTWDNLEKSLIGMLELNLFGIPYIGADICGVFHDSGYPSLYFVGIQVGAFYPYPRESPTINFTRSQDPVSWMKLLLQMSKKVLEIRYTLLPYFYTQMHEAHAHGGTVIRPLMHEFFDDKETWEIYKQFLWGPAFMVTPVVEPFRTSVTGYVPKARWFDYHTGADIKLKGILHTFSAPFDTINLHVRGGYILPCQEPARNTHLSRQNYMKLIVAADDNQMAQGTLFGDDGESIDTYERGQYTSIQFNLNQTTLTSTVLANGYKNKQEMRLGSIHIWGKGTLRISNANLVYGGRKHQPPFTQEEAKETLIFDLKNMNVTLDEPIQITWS
Test [5] has as its target T1, Sucrase-isomaltase, intestinal. The experiment in a line: Inhibition of human intestinal sucrase.

Activity calls are given as the source filed them. No cut-off for these calls is given here.

Sucrase-isomaltase, intestinal (Rattus norvegicus), sequence (P23739 1-1013 limits assumed): as the sequence (P23739 1-1013 limits assumed) above
Sucrase-isomaltase, intestinal (Rattus norvegicus), sequence (P23739 1014-1841 limits assumed): as the sequence (P23739 1014-1841 limits assumed) above

Take `OC[C@H]1NC[C@H](O)[C@@H](O)[C@@H]1O`: the figures for the inhibition in test [1] and in test [2] were 100% and 95%, respectively.
`O=c1cc(-c2ccccc2)oc2cc(O)c(O)c(O)c12` [BAICALEIN]: the IC50 stood at 35 µM in test [3] and 260 µM in test [4]. Also, the result in test [5] was Active.
